Assay results: patent US20240327364A1, “THERAPEUTIC TARGETING OF GPR68 TO INDUCE FERROPTOSIS” (University Of Maryland, Baltimore, priority 2023, published 2024)

What was measured:
[1] = target: T1, RET(V804M) (Homo sapiens, UniProt P07949, V804M); assay: KinomeScan; assay type: binding; details: read-out: % Control
T1 construct: purchased DiscoveRx (Fremont, CA)

[2] = target: T2, 5-HT4B (Homo sapiens, UniProt Q13639); assay: GPCR Profiler; assay type: cell-based
T2 construct: host or cells: Chem-1 cells with promiscuous Gα15
T2 sequence (Q13639 whole entry): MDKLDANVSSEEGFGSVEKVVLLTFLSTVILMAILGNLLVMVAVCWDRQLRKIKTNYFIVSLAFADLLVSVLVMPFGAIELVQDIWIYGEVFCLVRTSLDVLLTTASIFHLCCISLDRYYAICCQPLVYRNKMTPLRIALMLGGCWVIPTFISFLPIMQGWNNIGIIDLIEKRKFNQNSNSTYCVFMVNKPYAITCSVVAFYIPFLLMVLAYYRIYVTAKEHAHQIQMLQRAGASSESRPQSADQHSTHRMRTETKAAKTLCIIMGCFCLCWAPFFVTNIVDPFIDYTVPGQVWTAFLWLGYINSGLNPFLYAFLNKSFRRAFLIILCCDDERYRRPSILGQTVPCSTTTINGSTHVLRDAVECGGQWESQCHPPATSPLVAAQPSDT

[3] = target: T3, LPA3 (Homo sapiens, UniProt Q9UBY5); assay: GPCR Profiler; assay type: cell-based
T3 construct: host or cells: Chem-1 cells with promiscuous Gα15
T3 sequence (Q9UBY5 whole entry, species assumed): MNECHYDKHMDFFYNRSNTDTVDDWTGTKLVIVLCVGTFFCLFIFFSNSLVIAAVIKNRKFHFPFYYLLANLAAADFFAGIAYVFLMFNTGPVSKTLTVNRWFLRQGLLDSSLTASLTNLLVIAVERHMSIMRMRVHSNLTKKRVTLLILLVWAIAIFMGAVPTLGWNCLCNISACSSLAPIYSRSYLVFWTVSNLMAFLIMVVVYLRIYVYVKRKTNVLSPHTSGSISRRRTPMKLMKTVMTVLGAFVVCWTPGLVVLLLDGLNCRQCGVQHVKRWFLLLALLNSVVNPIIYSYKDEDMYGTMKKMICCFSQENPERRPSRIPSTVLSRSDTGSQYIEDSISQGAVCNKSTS

[4] = target: T4, NDR1 (Homo sapiens, UniProt Q15208); assay: KinomeScan; assay type: binding; details: read-out: % Control
T4 construct: purchased DiscoveRx
T4 sequence (Q15208 whole entry): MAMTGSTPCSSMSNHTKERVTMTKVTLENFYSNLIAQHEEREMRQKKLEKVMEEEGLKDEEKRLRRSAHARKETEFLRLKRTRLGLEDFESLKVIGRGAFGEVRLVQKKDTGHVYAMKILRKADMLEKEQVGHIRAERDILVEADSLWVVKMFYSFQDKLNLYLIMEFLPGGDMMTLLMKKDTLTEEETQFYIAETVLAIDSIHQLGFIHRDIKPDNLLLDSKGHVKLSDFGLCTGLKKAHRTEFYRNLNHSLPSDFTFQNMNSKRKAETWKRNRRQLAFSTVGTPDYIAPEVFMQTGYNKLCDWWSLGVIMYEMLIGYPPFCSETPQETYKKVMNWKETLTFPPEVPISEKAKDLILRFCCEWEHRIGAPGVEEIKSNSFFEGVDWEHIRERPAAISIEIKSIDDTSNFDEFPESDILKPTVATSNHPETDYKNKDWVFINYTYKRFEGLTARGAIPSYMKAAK

[5] = target: T5, MC5 (Homo sapiens, UniProt P33032); assay: GPCR Profiler; assay type: cell-based
T5 construct: host or cells: Chem-1 cells with promiscuous Gα15
T5 sequence (P33032 whole entry): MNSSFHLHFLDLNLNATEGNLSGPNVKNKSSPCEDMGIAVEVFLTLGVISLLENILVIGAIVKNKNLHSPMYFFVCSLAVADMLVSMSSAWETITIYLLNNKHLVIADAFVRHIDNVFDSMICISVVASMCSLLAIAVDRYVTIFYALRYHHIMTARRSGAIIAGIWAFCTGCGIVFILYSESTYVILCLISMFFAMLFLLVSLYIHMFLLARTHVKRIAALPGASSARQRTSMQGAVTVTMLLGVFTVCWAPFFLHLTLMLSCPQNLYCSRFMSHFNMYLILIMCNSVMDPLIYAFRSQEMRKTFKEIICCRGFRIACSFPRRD

[6] = target: T6, TRKC (Homo sapiens, UniProt Q16288); assay: KinomeScan; assay type: binding; details: read-out: % Control
T6 construct: purchased DiscoveRx (Fremont, CA)

[7] = target: T7, MAP4K2 (Homo sapiens, UniProt Q12851); assay: KinomeScan; assay type: binding; details: read-out: % Control
T7 construct: purchased DiscoveRx (Fremont, CA)

[8] = target: T8, Motilin (Homo sapiens, UniProt O43193); assay: GPCR Profiler; assay type: cell-based
T8 construct: host or cells: Chem-1 cells expressing Gα15
T8 sequence (O43193 whole entry): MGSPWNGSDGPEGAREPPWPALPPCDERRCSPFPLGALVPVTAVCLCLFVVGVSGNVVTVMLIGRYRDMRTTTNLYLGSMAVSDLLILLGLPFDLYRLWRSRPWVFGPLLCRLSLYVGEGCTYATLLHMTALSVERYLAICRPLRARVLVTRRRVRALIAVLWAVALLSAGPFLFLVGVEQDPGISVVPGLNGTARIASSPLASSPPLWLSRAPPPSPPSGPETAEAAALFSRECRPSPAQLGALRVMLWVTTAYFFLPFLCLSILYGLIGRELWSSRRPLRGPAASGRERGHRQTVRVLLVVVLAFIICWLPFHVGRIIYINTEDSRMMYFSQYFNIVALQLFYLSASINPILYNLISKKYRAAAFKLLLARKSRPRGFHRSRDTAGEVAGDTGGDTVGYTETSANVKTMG

[9] = target: T9, YSK4 (Homo sapiens, UniProt Q56UN5); assay: KinomeScan; assay type: binding; details: read-out: % Control
T9 construct: purchased DiscoveRx

[10] = target: T10, ADRA1B (Homo sapiens, UniProt P35368); assay: GPCR Profiler; assay type: cell-based
T10 construct: host or cells: Chem-1 cells with promiscuous Gα15
T10 sequence (P35368 whole entry, species assumed): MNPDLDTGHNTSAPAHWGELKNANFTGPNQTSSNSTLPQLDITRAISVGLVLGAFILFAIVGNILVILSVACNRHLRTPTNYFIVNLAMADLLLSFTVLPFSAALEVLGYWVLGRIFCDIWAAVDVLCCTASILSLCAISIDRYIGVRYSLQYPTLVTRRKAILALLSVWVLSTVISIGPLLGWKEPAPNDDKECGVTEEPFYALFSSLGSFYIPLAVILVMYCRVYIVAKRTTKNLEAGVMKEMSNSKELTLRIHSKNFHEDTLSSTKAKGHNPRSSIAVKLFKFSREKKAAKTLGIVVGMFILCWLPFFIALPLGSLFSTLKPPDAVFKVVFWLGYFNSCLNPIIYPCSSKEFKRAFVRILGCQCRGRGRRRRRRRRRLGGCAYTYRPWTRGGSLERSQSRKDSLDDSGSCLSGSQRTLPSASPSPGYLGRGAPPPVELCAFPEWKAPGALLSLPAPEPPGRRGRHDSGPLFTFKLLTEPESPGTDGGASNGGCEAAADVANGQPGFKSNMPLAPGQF

[11] = target: T11, TIE2 (Homo sapiens, UniProt Q02763); assay: KinomeScan; assay type: binding; details: read-out: % Control
T11 construct: purchased DiscoveRx (Fremont, CA)

[12] = target: T12, Secretin (Homo sapiens, UniProt P47872); assay: GPCR Profiler; assay type: cell-based
T12 construct: host or cells: Chem-1 cells with Gα15
T12 sequence (P47872 23-440): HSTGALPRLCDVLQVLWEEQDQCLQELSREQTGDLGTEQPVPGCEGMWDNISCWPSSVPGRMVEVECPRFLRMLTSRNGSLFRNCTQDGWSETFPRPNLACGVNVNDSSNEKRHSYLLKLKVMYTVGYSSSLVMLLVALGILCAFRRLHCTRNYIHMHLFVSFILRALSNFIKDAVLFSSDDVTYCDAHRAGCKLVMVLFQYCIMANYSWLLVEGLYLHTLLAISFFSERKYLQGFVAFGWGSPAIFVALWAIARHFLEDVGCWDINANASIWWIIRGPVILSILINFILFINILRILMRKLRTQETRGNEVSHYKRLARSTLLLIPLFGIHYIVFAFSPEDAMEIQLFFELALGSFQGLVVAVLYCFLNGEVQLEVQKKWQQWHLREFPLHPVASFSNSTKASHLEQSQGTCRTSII

[13] = target: T13, IP1 (Homo sapiens, UniProt P43119); assay: GPCR Profiler; assay type: cell-based
T13 construct: host or cells: Chem-1 cells with promiscuous Gα15
T13 sequence (P43119 whole entry): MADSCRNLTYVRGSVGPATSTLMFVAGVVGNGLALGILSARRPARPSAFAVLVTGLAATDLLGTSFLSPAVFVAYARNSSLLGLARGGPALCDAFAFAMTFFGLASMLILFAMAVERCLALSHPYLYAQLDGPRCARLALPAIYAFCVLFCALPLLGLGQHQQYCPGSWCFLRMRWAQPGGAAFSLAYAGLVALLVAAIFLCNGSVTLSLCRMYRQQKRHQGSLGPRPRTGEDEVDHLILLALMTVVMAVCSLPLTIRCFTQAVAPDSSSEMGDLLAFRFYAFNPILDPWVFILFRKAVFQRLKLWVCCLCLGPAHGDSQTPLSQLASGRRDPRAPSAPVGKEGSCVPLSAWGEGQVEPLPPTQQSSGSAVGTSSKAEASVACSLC

[14] = target: T14, NPBW1 (Homo sapiens, UniProt P48145); assay: GPCR Profiler; assay type: cell-based
T14 construct: host or cells: Chem-1 cells expressing Gα15
T14 sequence (P48145 whole entry): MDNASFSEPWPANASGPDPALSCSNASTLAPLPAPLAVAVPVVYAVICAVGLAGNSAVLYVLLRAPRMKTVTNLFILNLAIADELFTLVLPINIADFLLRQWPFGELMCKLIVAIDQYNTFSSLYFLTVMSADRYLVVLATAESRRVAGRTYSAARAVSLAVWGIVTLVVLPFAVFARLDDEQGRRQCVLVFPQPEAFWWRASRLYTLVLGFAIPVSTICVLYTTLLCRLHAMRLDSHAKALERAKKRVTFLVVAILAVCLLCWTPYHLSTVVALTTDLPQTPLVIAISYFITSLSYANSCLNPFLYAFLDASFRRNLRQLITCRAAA

[15] = target: T15, PFPK5(P. falciparum) (Plasmodium falciparum, UniProt P61075); assay: KinomeScan; assay type: binding; details: read-out: % Control
T15 construct: purchased DiscoveRx (Fremont, CA)

[16] = target: T16, RSK1(Kin.Dom.2-C-terminal) (Homo sapiens, UniProt Q15418); assay: KinomeScan; assay type: binding; details: read-out: % Control
T16 construct: RSK1(Kin.Dom.2-C-terminal); purchased DiscoveRx (Fremont, CA)
T16 sequence (Q15418 418-675 limits assumed): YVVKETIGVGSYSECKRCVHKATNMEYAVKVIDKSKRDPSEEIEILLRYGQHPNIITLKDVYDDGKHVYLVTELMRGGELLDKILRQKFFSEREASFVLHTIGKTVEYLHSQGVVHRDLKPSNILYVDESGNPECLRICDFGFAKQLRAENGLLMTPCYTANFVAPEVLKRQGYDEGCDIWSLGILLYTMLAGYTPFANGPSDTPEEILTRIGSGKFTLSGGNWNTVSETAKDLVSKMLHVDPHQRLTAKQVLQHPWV

[17] = target: T17, EPHA5 (Homo sapiens, UniProt P54756); assay: KinomeScan; assay type: binding; details: read-out: % Control
T17 construct: purchased DiscoveRx (Fremont, CA)

[18] = target: T18, BLY1 (Homo sapiens, UniProt Q15722); assay: GPCR Profiler; assay type: cell-based
T18 construct: host or cells: Chem-1 cells with promiscuous Gα15
T18 sequence (Q15722 whole entry): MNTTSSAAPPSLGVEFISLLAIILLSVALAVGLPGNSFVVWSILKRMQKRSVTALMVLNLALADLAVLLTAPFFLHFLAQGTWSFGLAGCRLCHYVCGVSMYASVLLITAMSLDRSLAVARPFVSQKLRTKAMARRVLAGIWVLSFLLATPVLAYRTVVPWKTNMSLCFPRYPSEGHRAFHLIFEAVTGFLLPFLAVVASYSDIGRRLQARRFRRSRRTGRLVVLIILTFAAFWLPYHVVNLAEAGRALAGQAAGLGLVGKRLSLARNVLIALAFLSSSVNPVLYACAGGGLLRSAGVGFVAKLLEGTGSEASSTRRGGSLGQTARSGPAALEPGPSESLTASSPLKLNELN

[19] = target: T19, IRAK3 (Homo sapiens, UniProt Q9Y616); assay: KinomeScan; assay type: binding; details: read-out: % Control
T19 construct: purchased DiscoveRx (Fremont, CA)

[20] = target: T20, GLP-2 (Homo sapiens, UniProt O95838); assay: GPCR Profiler; assay type: cell-based
T20 construct: host or cells: Chem-1 cells expressing Gα15
T20 sequence (O95838 whole entry): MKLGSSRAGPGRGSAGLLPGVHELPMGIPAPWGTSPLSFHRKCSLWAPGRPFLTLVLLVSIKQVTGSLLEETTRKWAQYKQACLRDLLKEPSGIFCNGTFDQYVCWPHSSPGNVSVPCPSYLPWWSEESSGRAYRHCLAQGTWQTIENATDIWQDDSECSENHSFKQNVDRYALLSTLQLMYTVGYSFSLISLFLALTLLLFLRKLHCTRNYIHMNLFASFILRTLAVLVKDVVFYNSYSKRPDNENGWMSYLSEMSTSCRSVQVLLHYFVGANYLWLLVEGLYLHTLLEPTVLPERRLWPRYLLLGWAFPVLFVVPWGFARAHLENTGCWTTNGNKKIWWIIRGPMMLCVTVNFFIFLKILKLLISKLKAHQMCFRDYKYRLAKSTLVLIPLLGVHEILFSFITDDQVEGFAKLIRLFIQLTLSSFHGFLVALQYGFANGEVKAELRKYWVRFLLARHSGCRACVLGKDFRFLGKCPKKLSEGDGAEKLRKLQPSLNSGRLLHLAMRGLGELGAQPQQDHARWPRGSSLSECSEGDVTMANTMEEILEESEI

[21] = target: CSNK1G1 (Homo sapiens, UniProt Q9HCP0); assay: KinomeScan; assay type: binding; details: read-out: % Control
[22] = target: T21, RPS6KA5(Kin.Dom.2-C-terminal) (Homo sapiens, UniProt O75582); assay: KinomeScan; assay type: binding; details: read-out: % Control
T21 construct: RPS6KA5(Kin.Dom.2-C-terminal); purchased DiscoveRx (Fremont, CA)

[23] = target: T22, MEK2 (Homo sapiens, UniProt P36507); assay: KinomeScan; assay type: binding; details: read-out: % Control
T22 construct: purchased DiscoveRx (Fremont, CA)

[24] = tested on: U87 glioblastoma cells; assay: Acid-induced calcium flux in U87 cells; assay type: cell-based, human; details: medium shifted from pH 7.8 to 6.4
Excerpt: GPR68 is known to signal through Gq which results in a calcium flux out of the Endoplasmic reticulum. U87 glioblastoma cells were stained, using a calcium-sensitive vital dye Fluo-8, and stimulated with acidification of the media to pH6.4. The cells respond to the acidification with a burst of calcium release, this is inhibited by OGM2.
To determine if GBM cells respond to their own acidic extracellular milieu as a form of autocrine signaling, calcium release in response to acidification was measured. GPR68 is known to couple to the Gq subunit, which acts to release calcium from the ER in a PLC dependent pathway. The medium was shifted from pH 7.8 to 6.4, which triggered a rapid and robust calcium flux, as measured by the fluorescence intensity of calcium-sensitive dye Cal520-AM. This calcium flux was blocked by OGM2 and PLC inhibitor U73122. FIG. 50A, FIG. 50B, FIG. 50C and FIG. 50D.

[25] = tested on: Panc02; assay: Cell cycle analysis (propidium iodide flow cytometry); assay type: cell-based, mouse; details: 3 Gy radiation in combination with OGM
Experimental: Where appropriate, ANOVA, or student's T-test were conducted in PRISM. Chi squared T(X) was used for Liperfluo analysis. A value T(X)>4 implies that the two distributions are different with a p<0.01 (99% confidence). For drug interaction and therapeutic interaction, the coefficient of drug interaction (CDI) was calculated as follows: CDI=AB/(A×B). According to the impact of each group, AB is the value of combined treatment and A or B is the value of the single agent group to control group.
Both radiation and ferroptosis are known to induce G2/M arrest. Therefore, cells were treated with OGM2 and/or 3 Gy radiation. Media was then replaced, and cells were maintained for 24 hours. Cells were then trypsinized, pelleted, and fixed overnight in 70% Methanol at 4° C. Samples were then washed twice with cold PBS before being incubated with 10 mg/ml RNase A and 500 μg/ml propidium iodide in PBS in the dark for 30 minutes at room temperature. Cell cycle progression was determined by Flow cytometry using a LSR II from BD. FIG. 96A presents a cell cycle analysis of OGM2 treatment and irradiated Panc02 cells.

## CCc1ccc2c(c1)C1(NN=C(c3cccc4ccccc34)S1)C(=O)N2 (stereo not drawn) [OGM1, 5-ethyl-5′-naphthalen-1-ylspiro[1H-indole-3,2′-3H-1,3,4-thiadiazole]-2-one]
[1]
  remaining binding at 10 µM: 100%
[2]; 10 uM
  Antagonism: −24.1
[2]; 12.5 uM
  Agonism: 4.1
[3]; 10 uM
  Antagonism: 1.1
[3]; 12.5 uM
  Agonism: 0.3
[4]
  remaining binding at 10 µM: 98%
[5]; 10 uM
  Antagonism: 13.9
[5]; 12.5 uM
  Agonism: 0.9
[6]
  remaining binding at 10 µM: 62%
[7]
  remaining binding at 10 µM: 83%
[8]; 10 uM
  Antagonism: −0.7
[8]; 12.5 uM
  Agonism: 1
[9]
  remaining binding at 10 µM: 100%
[10]; 10 uM
  Antagonism: 1
[10]; 12.5 uM
  Agonism: 0.1
[11]
  remaining binding at 10 µM: 100%
[12]; 10 uM
  Antagonism: 1.7
[12]; 12.5 uM
  Agonism: 0.9
[13]; 10 uM
  Antagonism: −2
[13]; 12.5 uM
  Agonism: −0.5
[14]; 10 uM
  Antagonism: 22.8
[14]; 12.5 uM
  Agonism: 0.5
[15]
  remaining binding at 10 µM: 82%
[16]
  remaining binding at 10 µM: 73%
[17]
  remaining binding at 10 µM: 97%
[18]; 10 uM
  Antagonism: −5.5
[18]; 12.5 uM
  Agonism: 0.3
[19]
  remaining binding at 10 µM: 97%
[20]; 10 uM
  Antagonism: 2.1
[20]; 12.5 uM
  Agonism: −0.2
[21]
  remaining binding at 10 µM: 82%
[22]
  remaining binding at 10 µM: 91%
[23]
  remaining binding at 10 µM: 94%

## CCc1ccc2c(c1)C1(NN=C(c3ccccc3)S1)C(=O)N2 (stereo not drawn) [OGM2]
[24]
  acid-induced calcium flux: blocked
[25]
  coefficient of drug interaction (CDI), G2 phase fraction: 0.689
  increase in the G2 phase fraction: 120%
